In patent US10660933B2, “Compositions and methods for inhibition of bacterial infections in human endocervix” (priority 2015, dated 2020):

How the values were obtained:
Format in all cases: cell-based
[1] = tested on: Neisseria gonorrhoeae MS11; experiment: Ng adherence, invasion, and transmigration assays on polarized epithelial cells; conditions: for transmigration of MS11ΔOpa across the polarized T84 monolayer / Ng invasion into polarized T84 cells (gentamicin resistance): 6 h; for transmigration of MS11ΔOpa across the polarized T84 monolayer: ML-7 10 μM, PIK 100 μM, 2APB 10 μM, Y27632 10 μM; for Ng adherence to polarized T84 cells / Ng invasion into polarized T84 cells (gentamicin resistance): MS11ΔOpa, with inhibitors; for Ng adherence to polarized T84 cells: 3 h
Experimental: Ng adherence, invasion, and transmigration assays. The assays were performed as previously described. Briefly, polarized epithelial cells that were pretreated with or without the inhibitors for 1 h were incubated apically with Ng at 37° C. for 3 h for adherence and 6 h for invasion and transmigration assays with or without the inhibitors. Ng in the basolateral media were cultured and counted as transmigrated bacteria. Cells were washed and lysed to count adherent Ng. Cells were treated with gentamicin, washed, and lysed to count bacteria that were resistant to gentamicin treatment as invaded Ng.

[2] = tested on: human endocervical tissue explants; experiment: Ng-induced epithelial exfoliation of human endocervical tissue explants (3D-CFM); conditions: MS11ΔOpa, 24 h; ML-7 10 μM, PIK 100 μM
Experimental: (§1) Human endocervical tissue explants. The tissue explants were cultured as previously described. Endocervical tissues were obtained from patients undergoing voluntary hysterectomies and received within 24 h post-surgery. Samples were cut into ˜2.5 cm (L)×0.6 cm (W)×0.3 cm (H) pieces, incubated in CMRL-1066 (GIBCO, Gaithersburg, Md.) plus antibiotics for 24 h, and then switched to antibiotic-free media for 24 h.
(§2) Immunofluorescence analysis of human endocervical tissue explants. […] The tissue was fixed, embedded in gelatin, cryopreserved, sectioned crossing the apical and basolateral surfaces of the epithelium, stained for ZO1 (BD Bioscience), pMLC (Cell Signaling Technology, Beverly, Mass.), and Ng (51) by specific antibodies, and nuclei by DAPI (Life Technologies, Carlsbad, Calif.), and analyzed using CFM (Zeiss LSM 710, Carl Zeiss Microscopy LLC, Oberkochen, Germany). […]
(§3) To quantify epithelial exfoliation, the number of Ng associated cells localized on the top of the epithelial monolayer (exfoliated) and the total number of Ng associated epithelial cells was counted by visual inspection in each randomly acquired image, to determine the percentage of exfoliated cells. […] To quantify the redistribution of pMLC, the fluorescence intensity ratios (FIR) of pMLC staining at the apical to lateral in individual epithelial cells were determined using average FI as previously described.

[3] = tested on: Neisseria gonorrhoeae MS11ΔOpa; experiment: Ng subepithelial penetration in human endocervical tissue explants (3D-CFM); conditions: MS11ΔOpa, 24 h; ML-7 10 μM or PIK 100 μM; 27% without inhibitor
Experimental: as §1
Immunofluorescence analysis of human endocervical tissue explants. Individual endocervical tissue pieces were incubated with Ng at a MOI of ˜10 (based on the average number of endocervical epithelial cells in endocervical tissue pieces) in the presence or absence of the MLCK inhibitor ML-7 (10 μM, EMD Millipore) and PIK (100 μM) (54) on transwells for 24 h. Unassociated Ng were removed by extensive washes at 6 and 12 h. The tissue was fixed, embedded in gelatin, cryopreserved, sectioned crossing the apical and basolateral surfaces of the epithelium, stained for ZO1 (BD Bioscience), pMLC (Cell Signaling Technology, Beverly, Mass.), and Ng (51) by specific antibodies, and nuclei by DAPI (Life Technologies, Carlsbad, Calif.), and analyzed using CFM (Zeiss LSM 710, Carl Zeiss Microscopy LLC, Oberkochen, Germany). […]
as §3, with “cells. To estimate the level of Ng penetration into the subepithelium, the number of non-exfoliated epithelial cells (in clearly visible epithelial monolayers) with basal Ng staining and the total number of Ng associated epithelial cells were visually counted to calculate the percentage of infected epithelial cells with Ng penetration into the basolateral side.” for “cells.”

ZO1 = ZO1 distribution and cell morphology in Ng-infected human endocervical tissue explants; conditions: MS11ΔOpa 24 h, ML-7 10 μM
Source text: We determined if MS11ΔOpa can induce the disruption of the apical junction in human endocervical tissue. Sections of uninfected and infected tissue explants were stained for the junctional protein ZO1, Ng, and DNA and analyzed by 3D-CFM (FIG. 4G). We quantified junction disruption by determining the percentage of Ng associated epithelial cells that lost continuous apical staining of ZO1, using 3D reconstituted confocal images (FIG. 4G, right panels). […] In contrast to the recruitment of ZO1 to epithelial cells neighboring exfoliating cells in uninfected monolayers, no accumulation of ZO1 staining was observed around Ng infected exfoliating cells (FIG. 4I, arrows). […] Treatment with the MLCK inhibitor ML-7 restored both the morphology (FIG. 4G left panels) and apical distribution of ZO1 (FIG. 4H).
as §2

[4] = tested on: phosphorylated myosin light chain (pMLC); experiment: pMLC redistribution in Ng-inoculated human endocervical tissue explants; conditions: MS11ΔOpa-inoculated endocervical tissue explants, 24 h
Experimental: To explore the possibility of that Ng induced NMII redistribution occurs in vivo, we incubated human endocervical tissue explants with MS11ΔOpa for 24 h. Cryo-sections of the endocervical tissue were stained for pMLC, Ng and nuclei. In addition to its apical junction localization, pMLC was concentrated at the basal surface of the endocervical epithelial cells contacting with the basal membrane (FIG. 6A, upper panels). When incubated with MS11ΔOpa, there was a redistribution of pMLC from the basal to apical surface, resulting in a significant higher apical:lateral FIR in Ng inoculated tissue explants than that in no Ng control (FIG. 6), similar to what we observed in polarized T84 (FIGS. 5A and 5B) and HEC-1-B cells (FIG. 10). Furthermore, pMLC at the apical surface of the endocervical epithelial cells also concentrated at Ng adherent sites (FIG. 6A, second row, white arrows), but not at the membrane of cells neighboring exfoliating cells (FIG. 6A, second row, orange arrows). These observations confirm that Ng increase the relative amount of activated NMII at the apical surface of the endocervical epithelial cells in human tissue explants. […]
as §2
To quantify epithelial exfoliation, the number of Ng associated cells localized on the top of the epithelial monolayer (exfoliated) and the total number of Ng associated epithelial cells was counted by visual inspection in each randomly acquired image, to determine the percentage of exfoliated cells. To estimate the level of Ng penetration into the subepithelium, the number of non-exfoliated epithelial cells (in clearly visible epithelial monolayers) with basal Ng staining and the total number of Ng associated epithelial cells were visually counted to calculate the percentage of infected epithelial cells with Ng penetration into the basolateral side. To evaluate the disruption of the apical junction, the number of Ng associated epithelial cells that lost continuously apical staining of the junctional protein ZO1 and the total number of Ng associated epithelial cells were visually counted to calculate the percentage of Ng associated epithelial cells with apical junction disassembly. […]

Structure (SMILES)	transmigration of MS11ΔOpa across the polarized T84 monolayer [1]	Ng adherence to polarized T84 cells [1]	Ng invasion into polarized T84 cells (gentamicin resistance) [1]	epithelial exfoliation of human endocervical tissue explants [2]	percentage of epithelial cells with basally associated Ng [3] [%]	apical distribution of ZO1 (ZO1)	morphology of endocervical epithelial cells (ZO1)	pMLC accumulation at Ng adherent sites [4]	apical:lateral FIR of pMLC ([4]; ML-7 10 μM, PIK 100 μM)
NCCOB(c1ccccc1)c1ccccc1 [2APB]	significantly reduced the transmigration	none of these inhibitors had any significant effect	none of these inhibitors had any significant effect						
O=S(=O)(c1cccc2c(I)cccc12)N1CCCNCC1 [ML-7]	significantly reduced the transmigration	none of these inhibitors had any significant effect	none of these inhibitors had any significant effect	decreased the epithelial exfoliation of human endocervical tissue explants to the basal level	7.1	restored	restored	significantly reduced	significantly reduced
